From US20080260845A1, “MULTIPLE ACTIVE DRUG RESIN CONJUGATE” (priority 2003, published 2008)

Test: In vitro drug release (dissolution) of codeine/chlorpheniramine resin conjugate suspension
Assay type: physicochemical
Description: The dissolution testing shown in Tables I and II was conducted using a release medium of hydrochloric acid, sodium chloride, and sodium dodecylsulfate. […] The dissolution profile for chlorpheniramine, shown in Table II, also is even and predictable, for example, at the initial testing, 42 percent dissolution of chlorpheniramine at 1 hour, 65 percent at 3 hours, 78 percent at 6 hours, and 88 percent at 12 hours.
Further, Tables I and II show even, predictable drug release data at one and one half months, 3 months, 6 months, and 9 months, with only very minor variations. […] Thus, with aging of the product, the release profile is consistent, allowing use of the present invention in compliance with various stability requirements for pharmaceutical products.

[1] = 1-Hour, Initial, HCl/NaCl/sodium dodecylsulfate medium

CN(C)CCC(c1ccc(Cl)cc1)c1ccccn1 (stereo not shown) [Chlorpheniramine, chlorpheniramine]
Chlorpheniramine Release (1-Hour, 1.5M, 4O C. aging): 41%
Chlorpheniramine Release (1-Hour, 3M, 4O C. aging): 43%
Chlorpheniramine Release (1-Hour, 3M, 25 C. aging): 43%
Chlorpheniramine Release (1-Hour, 6M, 4O C. aging): 39%
Chlorpheniramine Release (1-Hour, 6M, 25 C. aging): 41%
Chlorpheniramine Release (1-Hour, 9M, 25 C. aging): 42%
Chlorpheniramine Release [1]: 1-Hour 42%
Chlorpheniramine Release (1-Hour, Initial, HCl/NaCl/sodium dodecylsulfate medium, listed as chlorpheniramine): 42%
Chlorpheniramine Release (3-Hour, 1.5M, 4O C. aging): 63%
Chlorpheniramine Release (3-Hour, 3M, 4O C. aging): 65%
Chlorpheniramine Release (3-Hour, 3M, 25 C. aging): 64%
Chlorpheniramine Release (3-Hour, 6M, 4O C. aging): 62%
Chlorpheniramine Release (3-Hour, 6M, 25 C. aging): 63%
Chlorpheniramine Release (3-Hour, 9M, 25 C. aging): 63%
Chlorpheniramine Release (3-Hour, Initial): 3-Hour 65%
Chlorpheniramine Release (3-Hour, Initial, listed as chlorpheniramine): 65%
Chlorpheniramine Release (6-Hour, 1.5M, 4O C. aging): 77%
Chlorpheniramine Release (6-Hour, 3M, 4O C. aging): 78%
Chlorpheniramine Release (6-Hour, 3M, 25 C. aging): 77%
Chlorpheniramine Release (6-Hour, 6M, 4O C. aging): 76%
Chlorpheniramine Release (6-Hour, 6M, 25 C. aging): 76%
Chlorpheniramine Release (6-Hour, 9M, 25 C. aging): 77%
Chlorpheniramine Release (6-Hour, Initial): 6-Hour 78%
Chlorpheniramine Release (6-Hour, Initial, listed as chlorpheniramine): 78%
Chlorpheniramine Release (12-Hour, 1.5M, 4O C. aging): 87%
Chlorpheniramine Release (12-Hour, 3M, 4O C. aging): 90%
Chlorpheniramine Release (12-Hour, 3M, 25 C. aging): 88%
Chlorpheniramine Release (12-Hour, 6M, 4O C. aging): 87%
Chlorpheniramine Release (12-Hour, 6M, 25 C. aging): 87%
Chlorpheniramine Release (12-Hour, 9M, 25 C. aging): 88%
Chlorpheniramine Release (12-Hour, Initial): 12-Hour 88%
Chlorpheniramine Release (12-Hour, Initial, listed as chlorpheniramine): 88%

COc1ccc2c3c1O[C@H]1[C@@H](O)C=C[C@H]4[C@@H](C2)N(C)CC[C@@]341 [Codeine, codeine]
Codeine Release (1-Hour, 1.5M, 4O C. aging): 55%
Codeine Release (1-Hour, 3M, 4O C. aging): 56%
Codeine Release (1-Hour, 3M, 25 C. aging): 54%
Codeine Release (1-Hour, 6M, 4O C. aging): 54%
Codeine Release (1-Hour, 6M, 25 C. aging): 54%
Codeine Release (1-Hour, 9M, 25 C. aging): 54%
Codeine Release [1]: 1-Hour 54%
Codeine Release (1-Hour, Initial, HCl/NaCl/sodium dodecylsulfate medium, listed as codeine): 54%
Codeine Release (3-Hour, 1.5M, 4O C. aging): 77%
Codeine Release (3-Hour, 3M, 4O C. aging): 77%
Codeine Release (3-Hour, 3M, 25 C. aging): 75%
Codeine Release (3-Hour, 6M, 4O C. aging): 77%
Codeine Release (3-Hour, 6M, 25 C. aging): 75%
Codeine Release (3-Hour, 9M, 25 C. aging): 75%
Codeine Release (3-Hour, Initial): 3-Hour 75%
Codeine Release (3-Hour, Initial, listed as codeine): 75%
Codeine Release (6-Hour, 1.5M, 4O C. aging): 88%
Codeine Release (6-Hour, 3M, 4O C. aging): 88%
Codeine Release (6-Hour, 3M, 25 C. aging): 86%
Codeine Release (6-Hour, 6M, 4O C. aging): 87%
Codeine Release (6-Hour, 6M, 25 C. aging): 85%
Codeine Release (6-Hour, 9M, 25 C. aging): 86%
Codeine Release (6-Hour, Initial): 6-Hour 86%
Codeine Release (6-Hour, Initial, listed as codeine): 86%
Codeine Release (12-Hour, 1.5M, 4O C. aging): 95%
Codeine Release (12-Hour, 3M, 4O C. aging): 95%
Codeine Release (12-Hour, 3M, 25 C. aging): 93%
Codeine Release (12-Hour, 6M, 4O C. aging): 94%
Codeine Release (12-Hour, 6M, 25 C. aging): 93%
Codeine Release (12-Hour, 9M, 25 C. aging): 94%
Codeine Release (12-Hour, Initial): 12-Hour 93%
Codeine Release (12-Hour, Initial, listed as codeine): 93%
